Results published in patent US6146616A, “Antioxidant and/or antielastase composition based on lupine oil” (priority 1997, dated 2000).

Tests used:
plasmid DNA (pBS) = assay: 3-D test: protection of adsorbed plasmid DNA against singlet oxygen generated by illuminated methylene blue; format: biochemical; details: for % Specific inhibition: methylene blue + light; for % Aspecific inhibition: on predamaged plasmid pBS^UV, absence of ROS
Excerpt: The test used is a biological system of detecting damage (3-D test) on DNA captured on a microplate (Analytical Biochemistry, 1995, 232, 37-42). The damage is recognized by the repair enzymes and repaired by purified cellular extracts. The repair of the lesions involves a phase for excision and then resynthesis of the damaged and excised DNA fragment. During the reparative synthesis stage, one or more modified nucleotides (digoxigenylated dUTP or DIG-11-dUTP) are incorporated into the DNA. These nucleotides are then recognized by anti-DIG antibodies coupled to alkaline phosphatase. An alkaline phosphatase substrate (Lumi-Phos 530) is then added and the luminescent signal emitted is measured by a luminometer (Lumax 2, marketed by the company S.F.R.I.). The intensity of the signal obtained depends on the different parameters (extracts, salt concentration, quantity of DNA, reaction time and the like) including that relating to the number of lesions repaired, and therefore of lesions present on the DNA. A dose-response relationship is observed within the limit of 1 to 15 lesions per 6 kilobases for most of the lesions.
This system is capable of repairing any type of lesion since all the enzymes for repairing DNA lesions are present and active in the extracts. The oxidative damage is therefore recognized in this system.
The damage is caused by reactive oxygen species (ROS) by means of a system which induces the formation of lesions on the DNA adsorbed in a well, leading to the reading of a reparative synthesis signal. In the presence of a compound or of a mixture of compounds which make it possible to protect DNA as a result, for example, of antioxidant or anti-free radical properties, a decrease or even an elimination of the repair signal, a reflection of the quantity of lesions, is observed.
ROS ^1 O2, a powerful electrophile which has a very short life, is generated by illumination of methylene blue. It therefore reacts very rapidly with the bases in the DNA and produces various types of damage such as modification of bases or loss of bases, which are very genotoxic.
Ultrapurified plasmid DNA (pBS) (predominantly supercoiled form) is placed in contact with the wells sensitized by poly-lysine for 30 minutes at 30° C., with gentle shaking, at a concentration of 1 μg/ml in a volume of 50 μl. Under these conditions, the adsorption of the DNA is quantitative (about 40 ng per well).
A positive control for repair, consisting of a plasmid predamaged by UV-C (called pBS^UV), is added.
After incubation, the wells are washed twice with a solution of PBS supplemented with 0.1% Tween 20.
A stock solution of methylene blue at 10 μg/ml is diluted to a concentration of 4 ng/ml in ultrapure water (MilliQ quality from Millipore).
This solution is mixed in an equal volume with various dilutions of the samples, and 50 μl of the mixture (at 2 ng/ml of methylene blue) are added to the wells containing the adsorbed plasmid DNA. The wells are placed on ice and illuminated for 20 minutes with 2 lamps of 100 W, 30 cm apart.
The four samples were tested at 3 dilutions.
The dilutions were made 2X, in propylene glycol, in order to obtain the desired dilutions after addition of a volume of methylene blue solution of 4 ng/ml.
In order to check that the decrease in the repair signal is not aspecific, the same dilutions (IX) are incubated under the same conditions on pBS^UV. […] An inhibition of the control repair signal for pBS^UV can, for example, be explained by a direct interaction of the sample with the DNA which blocks access of the lesions to the repair enzymes.
These different dilutions were incubated on the nondamaged DNA (pBS) and illuminated in the absence of methylene blue. This test makes it possible to check that the product tested is not genotoxic.
They are expressed as the percentage residual repair inhibition. The 0% value corresponds to the repair signal under the condition of methylene blue treatment alone. […]

pancreatic elastase = target: T1, pancreatic elastase (Sus scrofa, UniProt P00772); assay: Antielastase activity in sections of human skin explant (intact elastic fibers, image analysis); format: biochemical; details: for % Inhibition of the elastase activity: elastase 5 IU/ml, 3 hours, 37° C.; for Inhibition (of elastase, graded 0 to +++): Table 8
T1 construct: purchased Sigma E0258
T1 sequence (P00772 27-266): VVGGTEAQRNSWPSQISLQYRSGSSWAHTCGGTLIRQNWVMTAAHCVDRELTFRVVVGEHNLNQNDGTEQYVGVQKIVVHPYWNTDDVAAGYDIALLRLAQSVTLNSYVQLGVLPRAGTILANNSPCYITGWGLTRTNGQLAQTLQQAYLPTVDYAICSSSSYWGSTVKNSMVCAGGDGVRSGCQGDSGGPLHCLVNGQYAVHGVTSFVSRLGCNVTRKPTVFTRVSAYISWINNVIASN
Excerpt: The study of the antielastase activity represents a good indication of skin aging since it is now well known that the degradation of the elastic fibers present in the dermis involves endogenous elastases. The test used makes it possible to study the antielastase activity in vitro in sections of human skin explant. An application of purified elastase on a limited portion of the section is accompanied by degradation of the endogenous elastic fibers. The elastic fibers are stained with (+)-catechin. The percentage of intact elastic fibers per optical field is evaluated by image analysis. A product having antielastase activity makes it possible to preserve the integrity of the elastic fibers in the presence of purified elastase.
A pancreatic elastase (type IV, reference E0258, Sigma) is used. The medium for incubation of the human skin sections ("vehicle") is 0.1 M Herpes buffer, adjusted to pH 7.5 with sodium hydroxide containing 0.1 M sodium chloride.
The skin sections are produced from surgical waste collected after abdominal plastic surgery. The donor was a person. Explants of 1 cm in diameter are produced and they are deposited on a cork support and they are frozen at -80° C. Transverse sections 6 µm thick are produced with a cryomicrotome. The sections are fixed on glass slides and maintained hydrated with the vehicle during the test.
The test products are tested at 0.5; 1 and 5% (v/v) in the vehicle.
The elastatinal is tested at 0.01 and 0.1% (w/v) in the vehicle.
The mercuric chloride is tested at 0.025 and 0.125% (w/v) in the vehicle.
The dilutions of the test products and of the reference products are deposited on the skin sections in an amount of 100 μl per section (0.32 cm^2 in surface area), and preincubated for ten minutes at 37° C. Filter paper strips (0.16 cm^2 in surface area) impregnated with the vehicle alone (control vehicle) or containing pancreatic elastase at 5 international units (IU)/ml (control enzyme) are deposited on the sections. The slides are placed in a humid chamber at 37° C. for three hours.
After incubation, the sections are rinsed with the incubation medium and stained with (+)-catechin. The activity of the enzyme in the absence and in the presence of the test products or of the reference products is evaluated by image analysis: the image of the stained sections is digitized on a video screen; a software for image analysis makes it possible to measure the amounts of gray in the binary images; the surface area occupied by the intact elastic fibers is measured. The results are expressed as percentage of intact elastic fibers per optical field.
The percentage inhibition of the elastase activity of the test products and of the reference products is calculated with the aid of the following formula: [formula]
The antielastase activity is determined under the conditions indicated in IV above.

[1] = test system: human epidermal keratinocytes; assay: Anti-free radical activity: hydroperoxides by fluorometry in UVA-irradiated keratinocytes; format: cell-based; details: Keratinocyte, light or radiation study, 1.5 h, 0.1% (w/v), UVA 90 minutes (10 J/cm^2), read-out: % protection
Excerpt: The cells are human epidermal keratinocytes. […] The cells are used at the sixth passage, they are inoculated at 1×10^5 cells per well into 6-well culture plates. They are used at confluence.
It is quantified by a fluorometric method which detects the quantity of hydroperoxides which are metabolites of free radicals. An appropriate probe which converts to a fluorescent derivative in their presence is used, according to the method described by Keston A. S. and Brandt R. (The fluorometric analysis of ultramicro quantities of hydrogen peroxide, Anal. Biochem. 11, 1965, 1-5).
The free radicals are generated at the cell culture level by irradiation with ultraviolet A rays. […]
After irradiation, the keratinocytes are lyzed by the action of ultrasound. The cellular lysates are transferred into 96-well plates and analyzed by fluorimetry with the aid of a plate analyzer (excitation: 355 nm, emission: 460 nm).
The results are expressed in fluorescence unit/culture well.
The percentage protection of the test products or of the reference products R1 and R2 was calculated with the aid of the following formula: [formula]
By convention, when the values measured in the presence of the test products or in the presence of the reference products were less than those of the "non-irradiated control", the percentage protection was expressed as 100%.

Row | Compound | % Specific inhibition (plasmid DNA (pBS); 0.01%) [%] | % Aspecific inhibition (plasmid DNA (pBS); 0.01%) [%] | protective properties on DNA towards singlet oxygen (in words) (plasmid DNA (pBS); 0.01 to 1%) | % Specific inhibition (plasmid DNA (pBS); 0.1%) [%] | % Aspecific inhibition (plasmid DNA (pBS); 0.1%) | % Specific inhibition (plasmid DNA (pBS); 1%) [%] | % Aspecific inhibition (plasmid DNA (pBS); 1%) [%] | also measured
1 | CC1=C(/C=C/C(C)=C/C=C/C(C)=C/C=C/C=C(C)/C=C/C=C(C)/C=C/C2=C(C)CCCC2(C)C)C(C)(C)CCC1 [Control, β-carotene] | 45 | 0 | does not exhibit a dose-effect | 53 | +2% | 45 | 0 | aspecific effect / aspecificity (in words) (plasmid DNA (pBS); 0.01 to 1%): does not show, on the other hand, aspecificity
2 | CC(C)C[C@H](NC(=O)N[C@H](C(=O)N[C@@H](CCC(N)=O)C(=O)N[C@@H](C)C=O)[C@@H]1CCNC(=N)N1)C(=O)O [Elastatinal, elastatinal] | – | – | – | – | – | – | – | % Inhibition of the elastase activity (pancreatic elastase; 0.01% (w/v)): 71.5%; % Inhibition of the elastase activity (pancreatic elastase; 0.01% (w/v), listed as elastatinal): 71%; % Inhibition of the elastase activity (pancreatic elastase; 0.1% (w/v)): 59.9%; % Inhibition of the elastase activity (pancreatic elastase; 0.1% (w/v), listed as elastatinal): 60%; Inhibition (of elastase, graded 0 to +++) (pancreatic elastase; 0.1% (w/v)): strongly inhibits
3 | [Cl][Hg][Cl] [Mercuric chloride, mercuric chloride] | – | – | – | – | – | – | – | % Inhibition of the elastase activity (pancreatic elastase; 0.025% (w/v)): 18.4%; % Inhibition of the elastase activity (pancreatic elastase; 0.025% (w/v), listed as mercuric chloride): 18%; % Inhibition of the elastase activity (pancreatic elastase; 0.125% (w/v)): 39.3%; % Inhibition of the elastase activity (pancreatic elastase; 0.125% (w/v), listed as mercuric chloride): 39%; Inhibition (of elastase, graded 0 to +++) (pancreatic elastase; 0.125% (w/v)): strongly inhibits
4 | CC(O)CO (centres unmarked) [Propylene glycol, propylene glycol] | 0 | 2 | only very weak protective properties | 6 | 6% | 13 | 7 | –
5 | CC(=O)Oc1c(C)c(C)c2c(c1C)CCC(C)(CCCC(C)CCCC(C)CCCC(C)C)O2 (centres unmarked) [Vitamin E acetate, vitamin E acetate] | – | – | – | – | – | – | – | inhibition at 0.1 % [1]: 65%
